This passage reports IC50 results from patent US20250282768A1 (Janssen Pharmaceutica NV, priority 2022, published 2025).

Bounds are passed on as bounds.

The subject of the experiment is p-IKKa levels in L363 (NIK translocated multiple myeloma) cells. In words: Assay 2: Effect of compounds on p-IKKa levels in L363 (NIK translocated multiple myeloma) cells. Format: cell-based. Particulars: Homo sapiens, L-363, 6 h, read-out: Assay 2 IC50 (nM), p-IKKa (Ser 176/180) in BAFF stimulated L363 cells with MG132, 6 h; average if tested more than once. In short, it runs like this:
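L363 cells incubated overnight ± 250 ng/ml BAFF, then 6 h at 37 °C with compound (0.3% DMSO) ± 10 μM MG132. Lysates assayed for p-IKKa (Ser176/180) by AlphaLISA SureFire. IC50 from sigmoidal fit of % inhibition normalized to BAFF/MG132-stimulated and unstimulated controls.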
Turning to `CN1CC[C@@](O)(c2cc(-c3cc(C(F)(F)F)cc(-c4ccnc(Nc5cnn(C)c5)n4)n3)no2)C1=O` [Example 4, (R)-3-Hydroxy-1-methyl-3-(3-(6-(2-((1-methyl-1H-pyrazol-4-yl)amino)pyrimidin-4-yl)-4-(trifluoromethyl)pyridin-2-yl)isoxazol-5-yl)pyrrolidin-2-one], the IC50 is less than 50 nM.
Then `[2H]C1([2H])N(C)C(=O)[C@](O)(c2cc(-c3cccc(-c4ccnc(Nc5cnn(C)c5)n4)n3)no2)C1([2H])[2H]` [Example 5, (R)-3-Hydroxy-1-methyl-3-(3-(6-(2-((1-methyl-1H-pyrazol-4-yl)amino)pyrimidin-4-yl)pyridin-2-yl)isoxazol-5-yl)pyrrolidin-2-one-4,4,5,5-d4], with less than 50 nM.
Consider `CN1C(=O)[C@](O)(c2cc(-c3cccc(-c4ccnc(Nc5cnn(C)c5)n4)n3)no2)C[C@H]1C(F)(F)F` [Example 6, (3R,5S)-3-Hydroxy-1-methyl-3-(3-(6-(2-((1-methyl-1H-pyrazol-4-yl)amino)pyrimidin-4-yl)pyridin-2-yl)isoxazol-5-yl)-5-(trifluoromethyl)pyrrolidin-2-one], for which the IC50 lay in the range of 50 to 500 nM.
Regarding `[2H]C1([2H])N(C)C(=O)[C@](O)(c2cc(-c3cccc(-c4ccnc(Nc5cnn(CC)c5)n4)n3)no2)C1([2H])[2H]` [Example 7, (R)-3-(3-(6-(2-((1-Ethyl-1H-pyrazol-4-yl)amino)pyrimidin-4-yl)pyridin-2-yl)isoxazol-5-yl)-3-hydroxy-1-methylpyrrolidin-2-one-4,4,5,5-d4], the IC50 is less than 50 nM.
For `[2H]C1([2H])N(C)C(=O)[C@](O)(c2cc(-c3cccc(-c4ccnc(Nc5ccn(C)n5)n4)n3)no2)C1([2H])[2H]` [Example 8, (R)-3-Hydroxy-1-methyl-3-(3-(6-(2-((1-methyl-1H-pyrazol-3-yl)amino)pyrimidin-4-yl)pyridin-2-yl)isoxazol-5-yl)pyrrolidin-2-one-4,4,5,5-d4], the IC50 is less than 50 nM.
For `COc1nn(C(CO)CO)cc1Nc1nccc(-c2cccc(-c3cc([C@]4(O)CCN(C)C4=O)on3)n2)n1` [Example 9, (R)-3-(3-(6-(2-((1-(1,3-Dihydroxypropan-2-yl)-3-methoxy-1H-pyrazol-4-yl)amino)pyrimidin-4-yl)pyridin-2-yl)isoxazol-5-yl)-3-hydroxy-1-methylpyrrolidin-2-one], the IC50 lay in the range of 50 to 500 nM.
The result for `CN1CCC(n2cc(Nc3nccc(-c4cccc(-c5cc([C@@]6(O)C(=O)N(C)CC6(F)F)on5)n4)n3)cn2)CC1` [Example 10, (R)-4,4-Difluoro-3-hydroxy-1-methyl-3-(3-(6-(2-((1-(1-methylpiperidin-4-yl)-1H-pyrazol-4-yl)amino)pyrimidin-4-yl)pyridin-2-yl)isoxazol-5-yl)pyrrolidin-2-one] reads 50 to 500 nM; that for `CN1CC[C@@](O)(c2cc(-c3cccc(-c4ccnc(N[C@H]5CCOC5)n4)c3)no2)C1=O` [Example 11, (R)-3-Hydroxy-1-methyl-3-(3-(3-(2-(((S)-tetrahydrofuran-3-yl)amino)pyrimidin-4-yl)phenyl)isoxazol-5-yl)pyrrolidin-2-one], greater than 500 nM; that for `CN1CC[C@@](O)(c2cc(-c3cccc(-c4ccnc(N[C@@H]5CCOC5)n4)c3)no2)C1=O` [Example 12, (R)-3-Hydroxy-1-methyl-3-(3-(3-(2-(((R)-tetrahydrofuran-3-yl)amino)pyrimidin-4-yl)phenyl)isoxazol-5-yl)pyrrolidin-2-one], greater than 500 nM.
Consider `CN1CC[C@@](O)(c2cc(-c3cccc(-c4ccnc(N[C@H]5CC[C@H](O)C5)n4)c3)no2)C1=O` [Example 13, (R)-3-Hydroxy-3-(3-(3-(2-(((1 S,3S)-3-hydroxycyclopentyl)amino)pyrimidin-4-yl)phenyl)isoxazol-5-yl)-1-methylpyrrolidin-2-one], for which the IC50 is greater than 500 nM.
Consider `CN1CC[C@@](O)(c2cc(-c3cccc(-c4ccnc(N[C@H]5CC[C@@H](O)C5)n4)c3)no2)C1=O` [Example 14, (R)-3-Hydroxy-3-(3-(3-(2-(((1 S,3R)-3-hydroxycyclopentyl)amino)pyrimidin-4-yl)phenyl)isoxazol-5-yl)-1-methylpyrrolidin-2-one], for which the IC50 is greater than 500 nM.
